The values that follow come from patent US6984664B2, “Tertiary amino compounds having opioid receptor affinity” (Euro-Celtique, S.A., priority 1999, dated 2006).

Format in all cases: binding
The target of experiment [1] is delta opioid receptor (Homo sapiens, UniProt P41143). The experiment in a line: Affinity at the δ receptor ([35S]GTPγS membrane assay). Particulars: opioid receptor membranes, 30 min room temperature, read-out: calc Ki (nM) δ2. The procedure: (§1) Affinity at the μ, k and δ receptors for preferred compounds was obtained according to the following assays:
(§2) Mu, kappa or delta opioid receptor membrane solution was prepared by sequentially adding final concentrations of 0.075 μg/μl of the desired membrane protein, 10 μg/ml saponin, 3 μM GDP and 0.20 nM [^35S]GTPγS to binding buffer (100 mM NaCl, 10 mM MgCl2, 20 mM HEPES, pH 7.4) on ice. The prepared membrane solution (190 μl/well) was transferred to 96-shallow well polypropylene plates containing 10 μl of 20× concentrated stock solutions of agonist prepared in DMSO. Plates were incubated for 30 min at room temperature with shaking. Reactions were terminated by rapid filtration onto 96-well Unifilter GF/B filter plates (Packard) using a 96-well tissue harvester (Brandel) and followed by three filtration washes with 200 μl ice-cold binding buffer (10 mM NaH2PO4, 10 mM Na2HPO4, pH 7.4). Filter plates were subsequently dried at 50° C. for 2–3 hours. Fifty μl/well scintillation cocktail (MicroScint20, Packard) was added and plates were counted in a Packard Top-Count for 1 min/well.
(§3) Data were analyzed using the curve fitting functions in GraphPad PRISM™, v.

In experiment [2] the target is Mu opioid receptor (Homo sapiens, UniProt P35372). Put plainly: Affinity at the μ receptor ([35S]GTPγS membrane assay). Particulars: opioid receptor membranes, 30 min room temperature, read-out: calc Ki (nM) μ. The procedure:
as §1, §2, §3

Experiment [3] concerns the target kappa opioid receptor (Homo sapiens, UniProt P41145). Put plainly: Affinity at the k receptor ([35S]GTPγS membrane assay). The note with it: opioid receptor membranes, 30 min room temperature, read-out: calc Ki (nM) k. The procedure:
as §1, §2, §3

Where only a bound is given, the exact number is not on record here.

Mu opioid receptor, sequence (P35372 whole entry): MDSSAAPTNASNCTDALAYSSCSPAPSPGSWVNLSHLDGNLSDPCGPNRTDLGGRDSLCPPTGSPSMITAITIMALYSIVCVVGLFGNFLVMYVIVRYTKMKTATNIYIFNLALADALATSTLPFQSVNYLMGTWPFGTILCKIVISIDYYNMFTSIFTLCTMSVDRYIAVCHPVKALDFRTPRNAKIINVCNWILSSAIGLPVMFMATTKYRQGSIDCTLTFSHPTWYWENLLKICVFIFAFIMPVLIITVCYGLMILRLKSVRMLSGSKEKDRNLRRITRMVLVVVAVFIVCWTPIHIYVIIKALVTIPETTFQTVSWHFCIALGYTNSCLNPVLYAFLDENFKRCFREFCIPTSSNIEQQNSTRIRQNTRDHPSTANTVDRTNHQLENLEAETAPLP
kappa opioid receptor, sequence (P41145 whole entry): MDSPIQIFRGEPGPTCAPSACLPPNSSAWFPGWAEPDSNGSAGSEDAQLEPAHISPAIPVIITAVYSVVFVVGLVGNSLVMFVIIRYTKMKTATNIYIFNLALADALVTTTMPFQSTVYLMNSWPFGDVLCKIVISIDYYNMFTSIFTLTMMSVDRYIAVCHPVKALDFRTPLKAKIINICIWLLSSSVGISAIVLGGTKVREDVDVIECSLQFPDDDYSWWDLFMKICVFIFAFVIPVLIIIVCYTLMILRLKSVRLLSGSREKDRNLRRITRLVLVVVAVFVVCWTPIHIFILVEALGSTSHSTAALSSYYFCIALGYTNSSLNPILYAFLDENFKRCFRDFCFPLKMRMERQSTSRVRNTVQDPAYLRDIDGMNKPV
delta opioid receptor, sequence (P41143 whole entry): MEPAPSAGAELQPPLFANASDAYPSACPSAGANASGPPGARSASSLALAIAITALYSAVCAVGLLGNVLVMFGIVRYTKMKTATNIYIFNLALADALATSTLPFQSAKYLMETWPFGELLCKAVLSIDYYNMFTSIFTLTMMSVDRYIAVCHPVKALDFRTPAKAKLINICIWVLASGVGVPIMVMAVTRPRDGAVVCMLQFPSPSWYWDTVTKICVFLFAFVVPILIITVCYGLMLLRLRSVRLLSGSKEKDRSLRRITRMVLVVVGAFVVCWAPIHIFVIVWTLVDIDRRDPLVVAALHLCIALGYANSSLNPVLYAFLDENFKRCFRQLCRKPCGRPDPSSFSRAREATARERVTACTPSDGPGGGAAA

On to `CCCCN(CCCC)CCN(Cc1ccccc1)C(=O)Cc1ccccc1` [1-[1-benzyl-1-(2-phenyl-1-oxo-ethyl)-amino]-2-dibutylamino-ethyl], for which the inhibition constant Ki (as a rule, a dissociation constant, usually derived from enzyme kinetics or from competition with a known ligand) in experiment [1] was greater than 10000 nM; in experiment [2] it was 40 nM; in experiment [3], 3500 nM.
